Data as given in US20100016232A1, “Treatment Of Inflammatory Diseases With Mammal Beta Defensins” (Novozymes A/S, priority 2008, published 2010).
Marks after values point to notes of the source that are not given here. Where no end group is shown, it is not given here.

Assays:
[1] = tested on: TNF production in supernatants from immature dendritic cells; test: TNF production, immature dendritic cells (MUTZ-3 derived); type: cell-based, human
Procedure: To generate a dendritoid cell line, the human myeloid leukaemia cell lines MUTZ-3 (1×10^5 cells/ml) was differentiated for 7 days in the presence of rhGM-CSF (150 ng/ml) and rhIL-4 (50 ng/ml) into immature DCs. Medium was exchanged every 2-3 days.
(§1) Cytokine production in supernatants was measured by flow cytometry with a human inflammation cytometric bead array (CBA) according to manufacturer's instructions (BD) on a FACSarray flow cytometer. The following cytokines were measured: IL-8, IL-1β, IL-10, TNF, IL-12 p70, IL-6. In some experiments, cytokines were measured by ELISA kits from R&D systems (IL-10, TNF-α, IL-1β) according to the manufacturer' instruction.

[2] = tested on: DSS-induced colitis in the mouse; test: 10-day DSS-induced colitis, colon histological score (Example 6); type: in vivo
Procedure: (§2) Two sections (proximal and distal) of colon were taken from each animal and preserved in neutral buffered formalin for subsequent histological analysis (haematoxylin and eosin staining) according to the following scoring system:
Example 6 was carried out essentially as described in Example 5. The differences are indicated below.
Animals were divided into 9 experimental groups.
Two sections (proximal and distal) of colon were taken from each animal, processed for histological analysis (haematoxylin and eosin staining), and scored by a blind observer according to the scoring system described above.

[3] = tested on: TNF production in supernatant from a human monocyte cell line (MUTZ-3); test: TNF production, human monocyte cell line MUTZ-3; type: cell-based
Procedure: The human myeloid leukaemia-derived cell line MUTZ-3 (DSMZ, Braunschweig, Germany) was maintained in a-MEM (Sigma M4526), supplemented with 20% [volume/volume (v/v)] fetal bovine serum (Sigma F6178) and 40 ng/ml rhGM-CSF (R&D Systems 215-GM-050).
as §1

[4] = tested on: DSS-induced colitis in the mouse; test: 10-day DSS-induced colitis, colon histological score (Example 5); type: in vivo; conditions: day 10
Text: Animals were divided into 5 experimental groups.
Their colons were removed and their length and weight measured after exclusion of the caecum.
as §2
Two sections (proximal and distal) of colon were taken from each animal, processed for histological analysis (haematoxylin and eosin staining) and scored by a blind observer according to the histological scoring system described above.

[5] = Group F, 0.1 mg/kg twice daily i.v. + s.c.
[6] = Group G, 0.1 mg/kg i.v. every 2. day

With “hBD2: human beta defensin 2, SEQ ID NO:2; produced recombinantly in E. coli (Example 1); hBD2 of Tables 16-18 was prepared by chemical synthesis (GIGDPVTCLKSGAICHPVFCPRRYKQIGTCGLPGTKCCKKP; ends and bridges not checked; cysteine pairing not given here; listed as Homo sapiens)” the TNF ([1]; LPS 1.5 μg/ml, hBD2 1 μg/ml) was 18.04 pg/mL, the TNF ([1]; LPS 1.5 μg/ml, hBD2 10 μg/ml) was 13.8 pg/mL and the TNF ([1]; LPS 1.5 μg/ml, hBD2 100 μg/ml) was 7.66 pg/mL. For the same substance, the TNF ([1]; LTA 1.5 μg/ml, hBD2 1 μg/ml) was 0.00 pg/mL, the TNF ([1]; LTA 1.5 μg/ml, hBD2 10 μg/ml) was 2.76 pg/mL and the TNF ([1]; LTA 1.5 μg/ml, hBD2 100 μg/ml) was 5.22 pg/mL. It also gave a TNF ([1]; Medium, hBD2 1 μg/ml) of 4.64 pg/mL, a TNF ([1]; Medium, hBD2 10 μg/ml) of 1.89 pg/mL and a TNF ([1]; Medium, hBD2 100 μg/ml) of 0.00 pg/mL. For the same substance, the “Histology Score Distal Colon, mean” value ([2]; Group B, 1 mg/kg i.v.) was 3.56, the “Histology Score Proximal Colon, mean” value ([2]; Group B, 1 mg/kg i.v.) was 1.78 and the “Histology Score Distal Colon, mean” value ([2]; Group C, 0.1 mg/kg i.v.) was 3.14*. For the same substance, the “Histology Score Proximal Colon, mean” value ([2]; Group C, 0.1 mg/kg i.v.) was 1.71, the “Histology Score Distal Colon, mean” value ([2]; Group D, 0.01 mg/kg i.v.) was 3.10** and the “Histology Score Proximal Colon, mean” value ([2]; Group D, 0.01 mg/kg i.v.) was 1.70. For the same substance, the “Histology Score Distal Colon, mean” value ([2]; Group E, 0.001 mg/kg i.v.) was 3.56, the “Histology Score Proximal Colon, mean” value ([2]; Group E, 0.001 mg/kg i.v.) was 1.44 and the “Histology Score Distal Colon, mean” value [2, 5] was 2.90***. The “Histology Score Proximal Colon, mean” value [2, 5] was 1.30*, the “Histology Score Distal Colon, mean” value [2, 6] was 3.56 and the “Histology Score Proximal Colon, mean” value [2, 6] was 1.56. The TNF ([3]; LPS 1.5 μg/ml, hBD2 1 μg/ml) was 6.61 pg/mL, the TNF ([3]; LPS 1.5 μg/ml, hBD2 10 μg/ml) was 3.93 pg/mL and the TNF ([3]; LPS 1.5 μg/ml, hBD2 100 μg/ml) was 3.93 pg/mL. For the same substance, the TNF ([3]; LTA 1.5 μg/ml, hBD2 1 μg/ml) was 1.75 pg/mL, the TNF ([3]; LTA 1.5 μg/ml, hBD2 10 μg/ml) was 3.76 pg/mL and the TNF ([3]; LTA 1.5 μg/ml, hBD2 100 μg/ml) was 2.64 pg/mL. The TNF ([3]; Medium, hBD2 1 μg/ml) was 2.21 pg/mL, the TNF ([3]; Medium, hBD2 10 μg/ml) was 2.60 pg/mL and the TNF ([3]; Medium, hBD2 100 μg/ml) was 0.00 pg/mL. For the same substance, the “Histology Score Distal Colon” value ([4]; 0.1 mg/kg i.v. daily) was 3.67, the “Histology Score Distal Colon” value ([4]; 1 mg/kg i.v. daily) was 4.13 and the “Histology Score Distal Colon” value ([4]; 10 mg/kg i.v. daily) was 4.78.
